Measurements published in paper PMC10154249, “Unique progerin C-terminal peptide ameliorates Hutchinson–Gilford progeria syndrome phenotype by rescuing BUBR1” (Nature Aging, 2023).

Experiments:
[1] = target: T1, PTBP1 (Homo sapiens, UniProt P26599); assay: Microscale thermophoresis (MST) of UPCP and PTBP1; format: binding; conditions: Fig. 4l
T1 construct: made in house
Description: Cells were harvested and lysed in buffer A mixed with protease inhibitor cocktail tablet (Roche) after 48 h. […] The beads were washed three times using 1× Tris saline buffer (50 mM Tris-HCl (pH 7.4) and 150 mM NaCl)) for 8 min each. The bound proteins BUBR1 or PTBP1 were eluted with 3×Flag peptide (ApexBio) for 2 h at 4 °C. Finally, BUBR1 or PTBP1 was concentrated and recovered by using the Centrifugal Filters (Amicon Ultra).
His-UPCP was eluted with Imidazole eluent for 2 h at 4 °C and concentrated and recovered by using centrifugal filters (Amicon Ultra). Flag-BUBR1 or PTBP1 was purified as described in Affinity purification of Flag-tagged protein. The purified protein was diluted with 0.05% Tween-20 in PBS in to an appropriate concentration (His-UPCP: 50 nM, Flag-BUBR1: 25 μM, Flag-PTBP1: 45 μM). Then, His-UPCP was labeled with RED-Tris-NAT according to the manufacturer’s instructions (NanoTemper, MO-L018). Flag-BUBR1 or Flag-PTBP1 was diluted by 16 concentration gradients in turn and mixed with labeled protein (His-UPCP). The capillaries (MST NT115 premium) were loaded and the samples measured on the instrument (NanoTemper Monolith NT.115). Data were analyzed by MO.AffinityAnalysis and curves were drawn using Origin 2019.

[2] = tested on: skin of Lmna^G609G/G609G mice; assay: Histology of skin (epidermis, subcutaneous fat layers); format: in vivo, mouse; conditions: 13 weeks; for subcutaneous fat layers, Mean / subcutaneous fat layers: 20 mg kg^–1 i.p.
Description: For UPCP injection, 14-day-old Lmna^G609G/G609G mice were injected intraperitoneally with either PBS or UPCP (20 mg kg^–1, every other day) and wild-type mice were injected with PBS. […] Bodyweight and lifespan were monitored after UPCP treatment. The survival rate was analyzed by the Kaplan–Meier method. We only included mice that were of sufficient bodyweight at the start of the experiment, typically at least 80% of the average littermate weight of the same sex and genotype. All animals meeting criteria for inclusion were then divided randomly into three groups according to genotype (Lmna^+/+, Lmna^G609G/G609G-Mock and Lmna^G609G/G609G-UPCP).
For histological analyses, mice of the indicated genotypes were perfused with PBS, then with 4% paraformaldehyde (PFA). Whole organs were incubated in 4% PFA at 4 °C for 16 h. All samples were paraffin embedded and sectioning by Servicebio. Subsequently, the tissues were deparaffinized and rehydrated before hematoxylin-eosin (HE) or Masson staining or immunohistochemistry (IHC). HE staining was performed using an HE Kit (Absin, catalog no. abs9217), and Masson staining was performed using Masson’s Trichrome Stain Kit (Absin, catalog no. abs9347) according to the manufacturer’s instructions. The thickness of the layers or the areas of fibrosis in the tissues were calculated using ImageJ software by a blinded investigator. For IHC, the sections were completed by the Servicebio. The images were acquired by a microscope (Leica DMi8) and analyzed with Leica Application Suite X v.3.6.0.24 (Leica). For BubR1, cytoplasmic staining in cells was scored on the intensity of staining and the proportion of positive cells by a blinded investigator. The intensity of the staining was graded as 0 (negative, no color), 1 (low positive, light yellow), 2 (positive, brown yellow) or 3 (high positive, brown), and the number of positive cells was graded as 0 (<5%), 1 (5–25%), 2 (25–50%), 3 (51–75%) or 4 (>75%). The final score was defined as staining number score multiplied by staining color score. For lamin B1, p21 or IL-6, the proportion of positive cells was used to quantify the expression of protein in tissues by a blinded investigator.

[3] = tested on: HGADFN003 cells; assay: Ki67 immunofluorescence of HGADFN003 cells; format: cell-based, human; conditions: for Relative percentage of Ki67 positive cells: Fig. 5b, Mock 32, 39, 45, P=0.0148; for Ki67 positive cells: HGADFN003, Extended Data Fig. 10e
Description: Immunofluorescence was performed as described previously. Cells were plated on cover slips in 12-well plates, left overnight before the treatment. Cells were fixed in 1% formaldehyde in culture medium for 10 min at 37 °C and permeabilized with 0.2% Triton X-100 in PBS for 10 min at room temperature. Cells were washed twice in PBS and blocked for 1 h with 5% BSA in PBS and then incubated with primary antibodies at 4 °C overnight, washed three times in PBS and incubated with secondary antibodies for 1 h at room temperature. Cell nuclei were counterstained with a 500 nM concentration of 4,6-diamidino-2-phenylindole (DAPI) (Sigma). Images were acquired by a fluorescence microscope (OLYMPUS FV-1000, Carl Zeiss LSM880 or Leica DMi8) and analyzed with software NIS-Elements AR v.5.0.1 (Nikon), FLUOVIEW v.4.2b (OLYMPUS), ZEN v.2.3 SP1 (Carl Zeiss) and Leica Application Suite X v.3.6.0.24 (Leica). Cells were quantified by investigators who were blinded to the identity of the analyzed cell.

[4] = tested on: BUBR1 in IMR90-progerin cells; assay: Western blot of BUBR1 in progerin-expressing IMR90 cells; format: cell-based, human
Description: Western blot was performed as previously described. Cells were lysed in 1× Laemmli sample buffer after washing twice in cold PBS without calcium and magnesium. Protein concentrations were determined using the bicinchoninic acid (BCA) protein assay. Protein lysates were subjected to SDS–PAGE, transferred to 0.45-μm pore size hydrophobic PVDF transfer membrane (Merck Millipore), detected with the appropriate primary antibodies coupled with horseradish peroxidase-conjugated corresponding secondary antibodies, and visualized using enhanced chemiluminescence ECL reagent (GE Healthcare). The Tanon 5500 high-definition low-illumination CCD system (Tanon FLI Capture v.1.02) was used to capture chemiluminescent signals.

[5] = 20 mg kg^–1 i.p. every other day

T1 sequence (P26599 whole entry): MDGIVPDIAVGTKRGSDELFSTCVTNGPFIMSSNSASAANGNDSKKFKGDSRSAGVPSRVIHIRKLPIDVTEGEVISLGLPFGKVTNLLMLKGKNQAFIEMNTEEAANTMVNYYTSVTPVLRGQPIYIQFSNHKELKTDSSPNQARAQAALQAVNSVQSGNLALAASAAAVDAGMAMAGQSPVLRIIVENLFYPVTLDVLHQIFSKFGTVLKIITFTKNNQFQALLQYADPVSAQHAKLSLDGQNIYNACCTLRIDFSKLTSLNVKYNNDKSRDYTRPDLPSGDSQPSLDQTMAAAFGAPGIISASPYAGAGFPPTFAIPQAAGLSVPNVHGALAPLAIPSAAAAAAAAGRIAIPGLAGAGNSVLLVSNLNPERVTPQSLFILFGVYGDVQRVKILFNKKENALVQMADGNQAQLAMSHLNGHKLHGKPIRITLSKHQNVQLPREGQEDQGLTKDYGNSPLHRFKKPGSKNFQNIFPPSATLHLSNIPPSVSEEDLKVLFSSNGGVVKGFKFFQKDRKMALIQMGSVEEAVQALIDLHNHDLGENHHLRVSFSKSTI

With “H-YGRKKRRQRRRYNLRSRTVLCGTCGQPADKASASGSGAQSPQNCSIM-OH (cysteines drawn unpaired) [UPCP, unique progerin C-terminal peptide]” the “Dose Response Curve, Response” value ([1]; Dose 5.625e-6, Err-Value 0.11619) was 926.063, the “Dose Response Curve, Response” value ([1]; Dose 1.125e-5, Err-Value 0.242742) was 928.882 and the “Dose Response Curve, Response” value ([1]; Dose 2.25e-5, Err-Value 0.492149) was 930.614. The “Dose Response Curve, Response” value ([1]; Dose 1.10E-08, Err-Value 0.170403) was 918.746, the “Dose Response Curve, Response” value ([1]; Dose 1.37E-09, Err-Value 0.46814) was 919.158 and the “Dose Response Curve, Response” value ([1]; Dose 1.41E-06, Err-Value 0.643872) was 921.756. The “Dose Response Curve, Response” value ([1]; Dose 1.76E-07, Err-Value 0.140462) was 919.37, the “Dose Response Curve, Response” value ([1]; Dose 2.20E-08, Err-Value 0.425445) was 918.898 and the “Dose Response Curve, Response” value ([1]; Dose 2.75E-09, Err-Value 0.242938) was 919.038. The “Dose Response Curve, Response” value ([1]; Dose 2.81E-06, Err-Value 0.290637) was 923.469, the “Dose Response Curve, Response” value ([1]; Dose 3.52E-07, Err-Value 0.0904303) was 919.901 and the “Dose Response Curve, Response” value ([1]; Dose 4.39E-08, Err-Value 0.556308) was 918.749. For the same substance, the “Dose Response Curve, Response” value ([1]; Dose 5.49E-09, Err-Value 0.120596) was 918.787, the “Dose Response Curve, Response” value ([1]; Dose 6.87E-10, Err-Value 0.420573) was 919.333 and the “Dose Response Curve, Response” value ([1]; Dose 7.03E-07, Err-Value 0.21429) was 920.338. For the same substance, the “Dose Response Curve, Response” value ([1]; Dose 8.79E-08, Err-Value 0.322491) was 918.54, the dermal fat loss [2, 5] was “improved” and the epidermal thinning [2, 5] was “improved”. The “subcutaneous fat layers, Mean” value ([2]; sample 1, mean of 3 measurements) was 0.2193 mm, the subcutaneous fat layers ([2]; sample 1, measurement 1) was 0.2 mm and the subcutaneous fat layers ([2]; sample 1, measurement 2) was 0.243 mm. The subcutaneous fat layers ([2]; sample 1, measurement 3) was 0.215 mm, the “subcutaneous fat layers, Mean” value ([2]; sample 2, mean of 3 measurements) was 0.1593 mm and the subcutaneous fat layers ([2]; sample 2, measurement 1) was 0.146 mm. The subcutaneous fat layers ([2]; sample 2, measurement 2) was 0.185 mm, the subcutaneous fat layers ([2]; sample 2, measurement 3) was 0.147 mm and the “subcutaneous fat layers, Mean” value ([2]; sample 3, mean of 3 measurements) was 0.1467 mm. The subcutaneous fat layers ([2]; sample 3, measurement 1) was 0.174 mm, the subcutaneous fat layers ([2]; sample 3, measurement 2) was 0.153 mm and the subcutaneous fat layers ([2]; sample 3, measurement 3) was 0.113 mm. The “Relative percentage of Ki67 positive cells” value (“Relative percentage” below) ([3]; HGADFN003, replicate 1) was 54%, the “Relative percentage” value ([3]; HGADFN003, replicate 2) was 62% and the “Relative percentage” value ([3]; HGADFN003, replicate 3) was 68%. For the same substance, the “Ki67 expression (FTI-277/UPCP comparison, words)” value ([3]; HGADFN003) was “increasing expression of BUBR1, CyclinA2 and Ki67”, the Ki67 positive cells ([3]; replicate 1) was 65% and the Ki67 positive cells ([3]; replicate 2) was 55%. The Ki67 positive cells ([3]; replicate 3) was 72%, the “Ki67 positive staining” value ([3]; HGPS cells) was “increased Ki67 positive staining” and the BUBR1 abundance [4] was “upregulated BUBR1”.
